IC50 and Ki data for two molecules are collected here from paper PMC7719157 (Pharmacology Research & Perspectives, 2020).

Assay [1] has as its target T1, PPARγ (Homo sapiens, UniProt P37231).
T1 sequence (P37231 223-505 limits assumed): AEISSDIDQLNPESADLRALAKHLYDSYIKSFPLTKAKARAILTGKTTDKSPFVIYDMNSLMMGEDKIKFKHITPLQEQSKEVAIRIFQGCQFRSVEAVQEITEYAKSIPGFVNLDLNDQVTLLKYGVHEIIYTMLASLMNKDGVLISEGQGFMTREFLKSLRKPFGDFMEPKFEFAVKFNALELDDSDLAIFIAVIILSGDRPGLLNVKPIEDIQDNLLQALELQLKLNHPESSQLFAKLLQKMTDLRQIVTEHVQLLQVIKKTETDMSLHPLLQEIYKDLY
As to the kind of experiment: TR-FRET coactivator. The assay is classed as biochemical. (Time-resolved FRET reads energy transfer from a long-lived donor to a nearby acceptor.)

The next assay concerns the target T2, PPARα (Homo sapiens, UniProt Q07869).
T2 sequence (Q07869 196-468 limits assumed): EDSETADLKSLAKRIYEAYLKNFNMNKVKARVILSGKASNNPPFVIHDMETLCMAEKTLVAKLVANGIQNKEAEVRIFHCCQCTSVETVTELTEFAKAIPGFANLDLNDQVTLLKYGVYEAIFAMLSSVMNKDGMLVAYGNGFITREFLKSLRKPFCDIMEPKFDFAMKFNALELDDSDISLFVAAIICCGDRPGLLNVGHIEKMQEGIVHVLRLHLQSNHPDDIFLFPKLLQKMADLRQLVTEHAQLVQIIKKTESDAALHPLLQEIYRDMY
As to the kind of experiment: AlphaScreen coactivator. The assay is classed as biochemical. (In Alpha technology, singlet oxygen from a donor bead excites a nearby acceptor bead.)

Another assay concerns the target T3, PPARδ (Homo sapiens, UniProt Q03181).
T3 sequence (Q03181 171-441 limits assumed): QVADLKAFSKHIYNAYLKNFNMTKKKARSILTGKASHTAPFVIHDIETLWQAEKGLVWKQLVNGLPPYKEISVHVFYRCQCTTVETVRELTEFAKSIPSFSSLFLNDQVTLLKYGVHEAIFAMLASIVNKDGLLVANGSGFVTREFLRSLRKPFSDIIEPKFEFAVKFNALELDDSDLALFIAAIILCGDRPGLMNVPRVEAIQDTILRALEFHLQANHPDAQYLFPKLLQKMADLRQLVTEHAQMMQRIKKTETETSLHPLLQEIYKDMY
As to the kind of experiment: AlphaScreen coactivator. The assay is classed as biochemical.

Assay [2] concerns the target T1, PPARγ. As to the kind of experiment: [3H]rosiglitazone radioligand displacement. The class given is binding. On the technique in general: Loss of bound radioactivity is the signal in a displacement assay; it reports binding, not function.

pIC50, pKi: −log10 of the molar value.

On to `O=C(Nc1ccccc1)c1cc([N+](=O)[O-])ccc1Cl` [GW9662], for which the pIC50 (usually the IC50 on a negative log10 scale, so that one unit is a factor of ten) against PPARγ [1] is 8.34.

As to `CC(C)(C)c1ccc(-c2nc(CBr)nn2-c2cccc(O)c2)cc1` [MM902, 3‐(3‐(bromomethyl)‐5‐(4‐(tert‐butyl) phenyl)‐1H‐1,2,4‐triazol‐1‐yl) phenol], the negative-log IC50 (pIC50) is 4.34 on PPARα and 4.32 on PPARδ. In addition, the pKi (in general, −log10 of the Ki, conventionally taken in molar units) on PPARγ [2] is 6.85.
